Results reported in publication PMC3490914, “The Nonantibiotic Small Molecule Cyslabdan Enhances the Potency of β-Lactams against MRSA by Inhibiting Pentaglycine Interpeptide Bridge Synthesis” (PLoS ONE, 2012).

Key:
[1] = biological target: T1, FemA (SAR1388) (Staphylococcus aureus, UniProt P0A0A5); assay: in vitro glycyl transfer assay with purified FemA, monoglycyl lipid II and […]-glycine, TLC/phosphoimaging; supported by pull-down with biotinylcyslabdan; type: biochemical
T1 construct: recombinant, C-terminal hexahistidine tag

[2] = biological target: T2, FemB (Staphylococcus aureus, UniProt Q2FYR1); assay: pull-down of purified recombinant protein on biotinylcyslabdan-immobilized avidin beads, SDS-PAGE (some background binding to beads alone)
T2 construct: recombinant, C-terminal hexahistidine tag

[3] = biological target: T1, FemA (SAR1388); assay: pull-down of purified recombinant protein on biotinylcyslabdan-immobilized avidin beads, SDS-PAGE; also from MRSA lysate with LC-MS/MS; type: binding

T1 sequence (P0A0A5 whole entry): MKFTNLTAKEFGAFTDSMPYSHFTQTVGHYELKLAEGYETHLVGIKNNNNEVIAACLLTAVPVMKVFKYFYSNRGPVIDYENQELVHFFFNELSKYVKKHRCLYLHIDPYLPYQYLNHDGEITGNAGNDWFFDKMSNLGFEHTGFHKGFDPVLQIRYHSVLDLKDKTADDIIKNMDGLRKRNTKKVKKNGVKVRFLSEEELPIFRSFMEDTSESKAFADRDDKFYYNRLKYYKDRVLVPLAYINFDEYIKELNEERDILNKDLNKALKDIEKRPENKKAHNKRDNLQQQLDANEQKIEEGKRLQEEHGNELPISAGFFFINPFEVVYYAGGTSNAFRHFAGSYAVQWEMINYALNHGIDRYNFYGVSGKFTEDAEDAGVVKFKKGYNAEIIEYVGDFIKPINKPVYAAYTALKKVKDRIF
T2 sequence (Q2FYR1 whole entry): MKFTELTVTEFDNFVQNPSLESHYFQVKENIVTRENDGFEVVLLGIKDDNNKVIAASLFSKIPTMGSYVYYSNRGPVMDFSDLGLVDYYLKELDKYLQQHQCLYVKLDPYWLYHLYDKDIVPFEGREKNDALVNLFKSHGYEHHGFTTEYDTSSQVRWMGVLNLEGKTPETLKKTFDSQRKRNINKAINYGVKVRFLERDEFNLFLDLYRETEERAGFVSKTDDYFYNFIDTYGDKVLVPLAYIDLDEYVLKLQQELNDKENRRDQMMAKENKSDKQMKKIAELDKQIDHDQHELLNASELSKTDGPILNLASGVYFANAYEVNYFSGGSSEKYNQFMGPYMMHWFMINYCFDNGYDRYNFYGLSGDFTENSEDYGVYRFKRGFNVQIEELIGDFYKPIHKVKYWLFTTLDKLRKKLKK

Structure (SMILES)	IC50 [1]	pull-down of purified recombinant protein on biotinylcyslabdan-immobilized avidi [2]	pull-down of purified recombinant protein on biotinylcyslabdan-immobilized avidi [3]
C=C/C(C)=C/C[C@@H]1[C@@]2(C)CCCC(C)(C)[C@@H]2C[C@H](O)[C@]1(O)CSC[C@H](NC(C)=O)C(=O)O [cyslabdan]	530 µM	–	–
C=C/C(C)=C/CC1C2(C)CCCC(C)(C)C2CC(O)C1(O)CSC[C@H](NC(C)=O)C(=O)NCCOCCOCCNC(=O)CCCCC1SC[C@@H]2NC(=O)N[C@H]12 (stereo partly drawn) [biotinylcyslabdan]	–	FemB was bound to only avidin beads, while the binding amount of FemB increased in the presence of biotinylcyslabdan	Purified recombinant SAR1388 protein was then added to avidin beads onto which biotinylcyslabdan had been immobilized.
